Measured values reported in ChEMBL document CHEMBL1201862, “PubChem BioAssay data set” (2004).
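Five concentrations, 48 hours, 96-well plates. GI50 marks 50% less growth.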 Activity calls are given as the source filed them. Rule as the data show it: active = GI50 up to about 1.1 µM and inactive = higher.

Experiments:
Assay in all cases: NCI anticancer screen, dose series, 48 h
A549 = tested on: A549
BT-549 = tested on: BT-549
CAKI-1 = tested on: CAKI-1
DU-145 = tested on: DU-145
HCC 2998 = tested on: HCC 2998
IGROV-1 = tested on: IGROV-1
KM12 = tested on: KM12
MCF7 = tested on: MCF7
Malme-3M = tested on: Malme-3M
NCI-H23 = tested on: NCI-H23
NCI/ADR-RES = tested on: NCI/ADR-RES
OVCAR-4 = tested on: OVCAR-4
RPMI-8226 = tested on: RPMI-8226
SF-295 = tested on: SF-295
SK-MEL-28 = tested on: SK-MEL-28
SK-MEL-2 = tested on: SK-MEL-2
SK-OV-3 = tested on: SK-OV-3
SNB-19 = tested on: SNB-19
SF-539 = tested on: SF-539

Measured: GI50

Cc1cc(CN2CCCCC2)c(O)c(CN2CCCCC2)c1
inactive: A549 > 100 µM | BT-549 > 100 µM | CAKI-1 > 100 µM | DU-145 > 100 µM | HCC 2998 > 100 µM | IGROV-1 > 100 µM | KM12 > 100 µM | MCF7 > 100 µM | Malme-3M > 100 µM | NCI-H23 > 100 µM | NCI/ADR-RES > 100 µM | OVCAR-4 > 100 µM | RPMI-8226 22.8 µM | SF-295 > 100 µM | SK-MEL-28 > 100 µM | SK-MEL-2 > 100 µM | SK-OV-3 > 100 µM | SNB-19 > 100 µM

OC1CCCN(C2(c3cccs3)CCCCC2)C1 (stereo unspecified)
inactive: BT-549 > 100 µM | CAKI-1 > 100 µM | DU-145 > 100 µM | HCC 2998 > 100 µM | IGROV-1 97.5 µM | KM12 > 100 µM | MCF7 > 100 µM | Malme-3M > 100 µM | NCI-H23 > 100 µM | NCI/ADR-RES > 100 µM | OVCAR-4 > 100 µM | RPMI-8226 > 100 µM | SF-295 > 100 µM | SK-MEL-28 > 100 µM | SK-MEL-2 > 100 µM | SK-OV-3 > 100 µM

COC(=O)Nc1nc2cc(S(=O)(=O)Nc3ccccn3)ccc2[nH]1
inactive: A549 80.7 µM | BT-549 30.9 µM | CAKI-1 47 µM | DU-145 71.1 µM | IGROV-1 27.9 µM | KM12 32.1 µM | MCF7 28.6 µM | Malme-3M 58.5 µM | NCI-H23 50.1 µM | NCI/ADR-RES 34.1 µM | OVCAR-4 54.1 µM | RPMI-8226 14 µM | SF-295 49.7 µM | SF-539 22.7 µM | SK-MEL-28 14.4 µM | SK-MEL-2 > 100 µM | SK-OV-3 44.5 µM | SNB-19 64.4 µM

CCOC(=O)C(=O)N/N=C1\C(=O)Nc2ccccc21
inactive: A549 > 100 µM | BT-549 > 100 µM | CAKI-1 > 100 µM | DU-145 > 100 µM | HCC 2998 > 100 µM | IGROV-1 > 100 µM | KM12 > 100 µM | MCF7 > 100 µM | Malme-3M > 100 µM | NCI-H23 > 100 µM | NCI/ADR-RES > 100 µM | OVCAR-4 > 100 µM | RPMI-8226 > 100 µM | SF-295 > 100 µM | SK-MEL-28 > 100 µM | SK-MEL-2 > 100 µM | SK-OV-3 > 100 µM | SNB-19 > 100 µM

Cn1c(=O)c2nc(SCCN3CCOCC3)[nH]c2n(C)c1=S
inactive: A549 > 100 µM | BT-549 > 100 µM | CAKI-1 > 100 µM | DU-145 > 100 µM | IGROV-1 > 100 µM | KM12 > 100 µM | MCF7 > 100 µM | Malme-3M > 100 µM | NCI-H23 > 100 µM | NCI/ADR-RES > 100 µM | OVCAR-4 > 100 µM | RPMI-8226 > 100 µM | SF-295 > 100 µM | SF-539 > 100 µM | SK-MEL-28 > 100 µM | SK-MEL-2 > 100 µM | SK-OV-3 > 100 µM | SNB-19 > 100 µM

CC1=NN(c2ccc(S(=O)(=O)O)cc2)C2(C1)C(Cl)C(=O)N2c1nc2ccccc2s1 (stereo unspecified)
inactive: A549 > 100 µM | BT-549 > 100 µM | CAKI-1 > 100 µM | DU-145 > 100 µM | HCC 2998 > 100 µM | IGROV-1 > 100 µM | KM12 > 100 µM | MCF7 > 100 µM | Malme-3M > 100 µM | NCI-H23 > 100 µM | NCI/ADR-RES > 100 µM | OVCAR-4 > 100 µM | RPMI-8226 > 100 µM | SF-295 > 100 µM | SK-MEL-28 > 100 µM | SK-MEL-2 92.5 µM | SK-OV-3 > 100 µM | SNB-19 > 100 µM
